From patent US7449477B2, “7-phenyl-isoquinoline-5-sulfonylamino derivatives as inhibitors of akt (protein kinase B)” (Eli Lilly and Company, priority 2003, dated 2008)
Counter-ions that a name gives are not always drawn.

biological target: T1, active human Akt1 (Homo sapiens, UniProt P31749); assay: Akt1 Phosphorylation Assay (phosphocellulose filter-binding, 33P-Crosstide); format: biochemical; conditions: active human recombinant Akt1 (full-length) 10 nM; 12.5 μM Crosstide; 20 μM ATP; 30 minutes at room temperature
T1 construct: Active human recombinant Akt1 (full-length) purified from Sf9 insect cells; purchased Upstate Biotechnology, Inc. 14-276; host or cells: Sf9 insect cells
T1 sequence (P31749 whole entry): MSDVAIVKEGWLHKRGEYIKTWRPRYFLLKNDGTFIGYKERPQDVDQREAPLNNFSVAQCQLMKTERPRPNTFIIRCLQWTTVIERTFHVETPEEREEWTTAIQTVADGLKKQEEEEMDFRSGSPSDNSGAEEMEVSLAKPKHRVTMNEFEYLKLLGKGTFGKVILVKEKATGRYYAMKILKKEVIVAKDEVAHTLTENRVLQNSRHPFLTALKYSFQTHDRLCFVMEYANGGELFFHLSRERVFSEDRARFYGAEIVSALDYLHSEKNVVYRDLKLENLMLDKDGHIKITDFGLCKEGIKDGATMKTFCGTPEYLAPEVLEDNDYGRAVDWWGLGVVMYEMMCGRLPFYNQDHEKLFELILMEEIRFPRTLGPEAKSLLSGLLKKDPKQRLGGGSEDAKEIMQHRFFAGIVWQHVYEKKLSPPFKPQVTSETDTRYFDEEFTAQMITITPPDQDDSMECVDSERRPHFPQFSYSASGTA
Procedure: Akt1 Phosphorylation Assay
The assay described measures the phosphorylation of Crosstide by active human Akt1 and other Akt isoforms. Crosstide contains a consensus sequence derived from Akt substrates GSK3b and forkhead transcription factors (FKs). The ^33P-labeled Crosstide substrate is captured by phosphocellulose membrane filter plates.
Active human recombinant Akt1 (full-length) purified from Sf9 insect cells is from Upstate Biotechnology, Inc. (Cat. #14-276, 405 μg/ml). Crosstide substrate, NH2-GRPRTSSFAEG-COOH (M.W.1164) is purchased from Multiple Peptide System (Cat. # L59/GR145-153).
Solution (A): 20% DMSO (dimethylsulphoxide) or Compound in 20% DMSO; Solution (B): Assay Buffer Mix: 31.25 μM Crosstide, 37.5 mM MgCl2, 87.5 mM HEPES, pH 7.3, 50 μM ATP γ-^33P-ATP, 0.05 μCi/μl; Solution (C): Akt Kinase Mix: 31.25 mM HEPES, pH 7.3; 1 mM DTT, 25 nM UBI Akt1.
Procedure for Phosphocellulose Filter-Binding Assay
Ten μl of Solution (A) are first mixed with 20 μl Solution (B). The enzymatic reaction is initiated by adding 20 μl Solution (C) to the mixture. (Final concentration or amount in a 50-μl reaction mix: 4% DMSO or various compound concentration in 4% DMSO; 12.5 μM Crosstide; 15 mM MgCl2; 35 mM HEPES, pH7.3; 20 μM ATP; 1 μCi γ-^33P-ATP; 0.4 mM DTT; 10 nM UBI Akt1.) The reactions are performed in 96-well microtiter plates.
After 30 minutes at room temperature, the reaction is terminated by adding 80 μl of 10% H3PO4. An aliquot of 100 μl from each well is transferred to the phosphocellulose filter plate (Millipore MultiScreen, Catalog #MAPHN0B50). After 30 minutes, the reaction mix is filtered with a Millipore manifold following by 3 washes with 0.5% H3PO4. The filter is then vacuum-dried and the plate is fitted onto a Packard carrier. 100 μl/well Microscint20 are added and the contents are counted in a Packard Top Count.

IC50, ≤ 2000 nM:
O=[N+]([O-])c1ccc([C@@H](O)CCNCCNS(=O)(=O)c2cc(-c3ccccc3)cc3cnccc23)cc1 [Example 82, (S)-7-Phenyl-isoquinoline-5-sulfonic acid [2-(3-hydroxy-3-(4-nitrophenyl)-propylamino)-ethyl]-amide, mesylate salt]
O=S(=O)(NCCNCCCc1ccccc1N1C=CC=NC=C1)c1cc(-c2ccccc2)cc2cnccc12 [Example 7, 7-Phenyl-isoquinoline-5-sulfonic acid {2-[3-(2-[1,4]diazepin-1-yl-phenyl)-propylamino]-ethyl}-amide, tetrahydrochloride salt]
O=[N+]([O-])c1cccc(CCCNCCNS(=O)(=O)c2cc(-c3ccccc3)cc3cnccc23)c1 [Example 101, 7-Phenyl-isoquinoline-5-sulfonic acid {2-[3-(3-nitro-phenyl)-propylamino]-ethyl}-amide, dihydrochloride salt]
CC1CN(c2cc(Cl)ccc2CCCNCCNS(=O)(=O)c2cc(-c3ccccc3)cc3cnccc23)CCN1 (stereo not drawn) [Example 54, 7-Phenyl-isoquinoline-5-sulfonic acid {2-[3-(4-chloro-2-(3-methyl-piperazin-1-yl)-phenyl)-propylamino]-ethyl}-amide, tetrahydrochloride salt]
O=[N+]([O-])c1ccc(C(O)C(O)CNCCNS(=O)(=O)c2cc(-c3ccccc3)cc3cnccc23)cc1 (stereo not drawn) [Example 87, 7-Phenyl-isoquinoline-5-sulfonic acid [2-(2,3-dihydroxy-3-(4-nitrophenyl)-propylamino)-ethyl]-amide, dihydrochloride salt]
O=C(O)c1cc([N+](=O)[O-])ccc1CCCNCCNS(=O)(=O)c1cc(-c2ccccc2)cc2cnccc12 [Example 64, 7-Phenyl-isoquinoline-5-sulfonic acid {2-[3-(2-carboxy-4-nitrophenyl)-propylamino]-ethyl}-amide, dihydrochloride salt]
O=[N+]([O-])c1cccc(-c2cc(Cl)ccc2CCCNCCNS(=O)(=O)c2cc(-c3ccccc3)cc3cnccc23)c1 [Example 47, 7-Phenyl-isoquinoline-5-sulfonic acid {2-[3-(5-chloro-3′-nitro-biphenyl-2-yl)-propylamino]-ethyl}-amide, dihydrochloride salt]
O=S(=O)(NCCNCCCc1ccc(Cl)cc1OCCN1CCOCC1)c1cc(-c2ccccc2)cc2cnccc12 [Example 69, 7-Phenyl-isoquinoline-5-sulfonic acid (2-{3-[4-chloro-2-(2-morpholino-4-yl-ethoxy)-phenyl]-propylamino}-ethyl)-amide, dihydrochloride salt]
N#Cc1ccc(CCCNCCNS(=O)(=O)c2cc(-c3ccccc3)cc3cnccc23)cc1C(F)(F)F [Example 67, 7-Phenyl-isoquinoline-5-sulfonic acid {2-[3-(4-cyano-3-trifluoromethylphenyl)-propylamino]-ethyl}-amide, dihydrochloride salt]
N#Cc1ccc(C(O)C(O)CNCCNS(=O)(=O)c2cc(-c3ccccc3)cc3cnccc23)cc1 (stereo not drawn) [Example 112, 7-Phenyl-isoquinoline-5-sulfonic acid {2-[3-(4-cyano-phenyl)-2,3-dihydroxy-propylamino]-ethyl}-amide, dihydrochloride salt]
CC(=O)Nc1ccc(CCCNCCNS(=O)(=O)c2cc(-c3ccccc3)cc3cnccc23)cc1 [Example 28, 7-Phenyl-isoquinoline-5-sulfonic acid {2-[3-(4-acetamidophenyl)-propylamino]-ethyl}-amide, dihydrochloride salt]
O=[N+]([O-])c1ccc(CCCNCCNS(=O)(=O)c2cc(-c3cccc(F)c3)cc3cnccc23)cc1 [Example 93, 7-(3-fluorophenyl)-isoquinoline-5-sulfonic acid [2-(3-(4-nitrophenyl)-propylamino)-ethyl]-amide]
